Assay results reported in patent US8981111B2 (priority 2008, dated 2015).

Assay: log P (HPLC/MS data of the preparation examples)
Details: HCOOH (formic acid)

Structure (SMILES) | chromatographic logP
Cn1cncc1C(=O)c1ccsc1 [(1-methyl-1H-imidazol-5-yl)(3-thienyl)methanone] | 0.43
Cn1cncc1C(=O)c1ccccc1 [(1-methyl-1H-imidazol-5-yl)(phenyl)methanone] | 0.79
O=C(c1ccsc1)c1snc(Cl)c1Cl [(3,4-dichloro-1,2-thiazol-5-yl)(3-thienyl)methanone] | 3.31
Cc1cnc(C)c(C(C#N)c2ccccc2)n1 (stereo not shown) [(3,6-dimethylpyrazin-2-yl)(phenyl)acetonitrile] | 2.28
Cc1cnc(C)c(C(=O)c2ccccc2)n1 [(3,6-dimethylpyrazin-2-yl)(phenyl)methanone] | 2.18
Cc1nocc1C(=O)c1cccs1 [(3-methyl-1,2-oxazol-4-yl)(2-thienyl)methanone] | 2.2
Cc1nocc1C(=NOC(=O)c1ccccn1)c1cccs1 [({[(3-methyl-1,2-oxazol-4-yl)(2-thienyl)methylene]amino}oxy)(pyridin-2-yl)methanone] | 2.25

Same assay, conditions: HPLC on reversed phase columns, method [a]: pH 2.3 with 0.1% phosphoric acid and acetonitrile as eluent

Structure (SMILES) | log p
Cc1nnsc1C(=NOCc1ccccn1)c1ccccc1 [Example 1] | 2.36^[a]

Same assay, conditions: LC-MS, method [b]: pH 2.7 with 0.1% formic acid in water and acetonitrile, linear gradient 10% to 95% acetonitrile

Structure (SMILES) | log p
Cn1ccnc1C(=NOCc1cccc(N2C(=O)c3ccccc3C2=O)n1)c1ccccc1 [Example 2] | 1.8^[b]
Cc1cccc(C(=NOCc2cccc(N3C(=O)c4ccccc4C3=O)n2)c2ncnn2C)c1 [Example 5] | 3.04^[b]
Cc1ccccc1C(=NOCc1cccc(N)n1)c1ncnn1C [Example 6] | 0.96^[b]
Cc1cccc(C(=NOCc2cccc(N)n2)c2ncnn2C)c1 [Example 8] | 1.27^[b]
Cc1ccccc1C(=NOCc1cccc(N2C(=O)c3ccccc3C2=O)n1)c1ncnn1C [Example 9] | 2.78^[b]
Cc1ccc(C(=NOCc2cccc(N3C(=O)c4ccccc4C3=O)n2)c2ncnn2C)cc1 [Example 10] | 2.92^[b]
Cn1ccnc1C(=NOCc1cccc(N)n1)c1ccccc1 [Example 11] | 0.36^[b]
Cn1ccnc1C(=NOCc1nccc(NC(=O)C(C)(C)C)n1)c1ccccc1 [Example 12] | 1.77^[b]
CCCCCCC(=O)Nc1ccnc(CON=C(c2ccccc2)c2nccn2C)n1 [Example 14] | 2.39^[b]
CC(C)CC(=O)Nc1ccnc(CON=C(c2ccccc2)c2nccn2C)n1 [Example 15] | 1.76^[b]
CCCCCC(=O)Nc1ccnc(CON=C(c2ccccc2)c2nccn2C)n1 [Example 16] | 2.1^[b]
Cc1ccc(C(=NOCc2cccc(NC(=O)C3CC3)n2)c2ncnn2C)cc1 [Example 17] | 2.73^[b]
CCCCCC(=O)Nc1cccc(CON=C(c2ccc(C)cc2)c2ncnn2C)n1 [Example 18] | 3.71^[b]
Cc1ccc(C(=NOCc2cccc(NC(=O)C(C)(C)C)n2)c2ncnn2C)cc1 [Example 19] | 3.31^[b]
Cc1cccc(C(=NOCc2cccc(NC(=O)C3CC3)n2)c2ncnn2C)c1 [Example 20] | 2.73^[b]
CCCCCC(=O)Nc1cccc(CON=C(c2cccc(C)c2)c2ncnn2C)n1 [Example 21] | 3.71^[b]
Cc1cccc(C(=NOCc2cccc(NC(=O)C(C)(C)C)n2)c2ncnn2C)c1 [Example 22] | 3.31^[b]
Cc1ccccc1C(=NOCc1cccc(NC(=O)C2CC2)n1)c1ncnn1C [Example 23] | 2.48^[b]
CCCCCC(=O)Nc1cccc(CON=C(c2ccccc2C)c2ncnn2C)n1 [Example 24] | 3.46^[b]
Cc1ccccc1C(=NOCc1cccc(NC(=O)C(C)(C)C)n1)c1ncnn1C [Example 25] | 3.06^[b]
Cn1ncnc1C(=NOCc1cccc(NC(=O)C(C)(C)C)n1)c1ccccc1 [Example 26] | 2.98^[b]
Cn1ncnc1C(=NOCc1cccc(NC(=O)C2CC2)n1)c1ccccc1 [Example 27] | 2.41^[b]

Structure (SMILES) | log p
Cn1ncnc1C(=NOCc1cccc(NC(=O)Cc2ccccc2)n1)c1ccccc1 [Example 29] | 3.06^[b]
Cc1ccccc1C(=NOCc1cccc(NC(=O)Cc2ccccc2)n1)c1ncnn1C [Example 30] | 3.11^[b]
Cc1cccc(C(=NOCc2cccc(NC(=O)Cc3ccccc3)n2)c2ncnn2C)c1 [Example 31] | 3.35^[b]
Cn1ccnc1C(=NOCc1cccc(NC(=O)Cc2ccccc2)n1)c1ccccc1 [Example 32] | 2^[b]
CCCCCC(=O)Nc1cccc(CON=C(c2ccccc2)c2nccn2C)n1 [Example 33] | 2.23^[b]
CCCCCOC(=O)Nc1cccc(CON=C(c2ccccc2)c2ncnn2C)n1 [Example 35] | 3.96^[b]
CC(C)CC(=O)Nc1cccc(CON=C(c2ccccc2)c2nccn2C)n1 [Example 36] | 1.89^[b]
CCCCCOC(=O)Nc1cccc(CON=C(c2ccccc2)c2nccn2C)n1 [Example 37] | 2.6^[b]
CCCCCC(=O)Nc1ccnc(CON=C(c2ccc(C)cc2)c2ncnn2C)n1 [Example 38] | 3.42^[b]
Cc1ccc(C(=NOCc2nccc(NC(=O)C(C)(C)C)n2)c2ncnn2C)cc1 [Example 39] | 3.02^[b]
Cc1ccc(C(=NOCc2nccc(NC(=O)C3CC3)n2)c2ncnn2C)cc1 [Example 40] | 2.46^[b]
CCCCCOC(=O)Nc1ccnc(CON=C(c2ccc(C)cc2)c2ncnn2C)n1 [Example 41] | 3.76^[b]
COC(=O)CCCC(=O)Nc1cccc(CON=C(c2ccc(C)cc2)c2ncnn2C)n1 [Example 42] | 2.68^[b]
COC(=O)CCCC(=O)Nc1cccc(CON=C(c2ccccc2)c2ncnn2C)n1 [Example 43] | 2.39^[b]
CCCCCOC(=O)Nc1cccc(CON=C(c2ccc(C)cc2)c2ncnn2C)n1 [Example 44] | 4.31^[b]
CCCCCOC(=O)Nc1cccc(CON=C(c2ccccc2C)c2ncnn2C)n1 [Example 45] | 4.06^[b]
Cn1ncnc1C(=NOCc1ncc(C(F)(F)F)cc1Cl)c1ccccc1 [Example 47] | 3.44^[b]
CCCCCC(=O)Nc1cccc(CON=C(c2cccc(C)c2)c2ncnn2C)n1 [Example 48] | 3.55^[b]
Cn1ncnc1C(=NOCc1ccccn1)c1ccccc1 [Example 50] | 1.51^[b]
Cn1ncnc1C(=NOCc1ccc2ccccc2n1)c1ccccc1 [Example 51] | 2.51^[b]
CCOC(=O)Nc1ccnc(CON=C(c2ccccc2)c2nccn2C)n1 [Example 52] | 1.47^[b]
COCC(=O)Nc1ccnc(CON=C(c2ccccc2)c2nccn2C)n1 [Example 53] | 1.2^[b]

Structure (SMILES) | log p
Cn1ccnc1C(=NOCc1nccc(NC(=O)COCc2ccccc2)n1)c1ccccc1 [Example 54] | 2.04^[b]
CCCCCOC(=O)Nc1ccnc(CON=C(c2ccccc2)c2nccn2C)n1 [Example 55] | 2.28^[b]
COCCOCC(=O)Nc1ccnc(CON=C(c2ccccc2)c2nccn2C)n1 [Example 56] | 1.34^[b]
C=CCOC(=O)Nc1ccnc(CON=C(c2ccccc2)c2nccn2C)n1 [Example 57] | 1.62^[b]
CCCC(=O)Nc1ccnc(CON=C(c2ccccc2)c2nccn2C)n1 [Example 58] | 1.68^[b]
CCCCC(=O)Nc1ccnc(CON=C(c2ccccc2)c2nccn2C)n1 [Example 59] | 1.95^[b]
Cn1nncc1C(=NOCc1cccc(N)n1)c1ccccc1 [Example 60] | 1.11^[b]
CC(=O)Nc1ccnc(CON=C(c2ccccc2)c2nccn2C)n1 [Example 62] | 1.13^[b]
CCC(=O)Nc1ccnc(CON=C(c2ccccc2)c2nccn2C)n1 [Example 63] | 1.38^[b]
Cn1ccnc1C(=NOCc1nccc(NC(=O)CCc2ccccc2)n1)c1ccccc1 [Example 64] | 2.21^[b]
CCCCCC(=O)Nc1cccc(CON=C(c2ccccc2)c2cnnn2C)n1 [Example 65] | 3.52^[b]
Cn1nncc1C(=NOCc1cccc(NC(=O)C(C)(C)C)n1)c1ccccc1 [Example 66] | 3.11^[b]
Cn1nncc1C(=NOCc1cccc(NC(=O)C2CC2)n1)c1ccccc1 [Example 67] | 2.55^[b]
Cn1nncc1C(=NOCc1cccc(NC(=O)Cc2ccccc2)n1)c1ccccc1 [Example 68] | 3.19^[b]
CCCCCOC(=O)Nc1cccc(CON=C(c2ccccc2)c2cnnn2C)n1 [Example 69] | 2.46^[b]
Cn1nncc1C(=NOCc1nccc(N)n1)c1ccccc1 [Example 70] | 0.96^[b]
CCCCCC(=O)Nc1ccnc(CON=C(c2ccccc2)c2cnnn2C)n1 [Example 71] | 3.23^[b]
CCCCS(=O)(=O)Nc1cccc(CON=C(c2ccccc2)c2ncnn2C)n1 [Example 72] | 4.21^[b]
CCCCS(=O)(=O)N(c1cccc(CON=C(c2ccccc2)c2ncnn2C)n1)S(=O)(=O)CCCC [Example 73] | 2.73^[b]
CCCCS(=O)(=O)Nc1cccc(CON=C(c2ccc(C)cc2)c2ncnn2C)n1 [Example 74] | 3.04^[b]
CCCCS(=O)(=O)Nc1cccc(CON=C(c2cccc(C)c2)c2ncnn2C)n1 [Example 75] | 3.04^[b]
CCCCS(=O)(=O)Nc1cccc(CON=C(c2ccccc2)c2cnnn2C)n1 [Example 76] | 2.86^[b]

Same assay, conditions: LC-MS, method [c]: pH 7.8 with 0.001 molar ammonium hydrogen carbonate solution in water, linear gradient 10% to 95% acetonitrile

Structure (SMILES) | log p
Cn1ccnc1C(=NOCc1nccc(N)n1)c1ccccc1 [Example 3] | 1.42^[c]
Cn1ccnc1C(=NOCc1cccc(N)n1)c1ccccc1 [Example 11] | 1.89^[c];

Same assay, conditions: reversed phase HPLC column, pH 2.7

Structure (SMILES) | chromatographic logP
Cn1ncnc1C(=NOCc1cccc(N)n1)c1ccccc1 [Example 4, 6-[({[(1-methyl-1H-1,2,4-triazol-5-yl)(phenyl)methylene]amino}oxy)methyl]pyridin-2-amine] | 1
Cn1ncnc1C(=NOCc1cccc(N2C(=O)c3ccccc3C2=O)n1)c1ccccc1 [Example 13, 2-{6-[({[(1-methyl-1H-1,2,4-triazol-5-yl)(phenyl)methylene]amino}oxy)methyl]pyridin-2-yl}-1H-isoindole-1,3(2H)-dione] | 2.76
CCCCCC(=O)Nc1cccc(CON=C(c2ccccc2)c2ncnn2C)n1 [Example 28, N-{6-[({[(1-methyl-1H-1,2,4-triazol-5-yl)(phenyl)methylene]amino}oxy)methyl]pyridin-2-yl}hexanamide] | 3.39
